In patent US10220112B2, “Cyclic antimicrobial pseudopeptides and uses thereof” (INSERM (INSTITUT NATIONAL DE LA SANTE ET DE LA RECHERCHE …, priority 2014, dated 2019):
≈ marks a conversion by molar mass, not a printed value.

How the values were obtained:
E. coli strain ML-35p = assay: E. coli outer and inner membrane permeabilization assays (nitrocefin / ONPG); type: cell-based, Escherichia coli
Description: E. coli outer and inner membrane permeability was determined by using E. coli strain ML-35p, which is lactose permease deficient. Nitrocefin, β-lactam is excluded by the outer cell membrane but, if it can pass this barrier thanks to the action of an AMP, it is then cleaved by the β-lactamase localized within the periplasm. ONPG, passes through lac permease and is cleaved by the cytoplasmic β-galactosidase, however with the ML-35p E. coli strain, ONPG is excluded unless permeabilization is achieved. The permeabilization assays were carried out with 100 μL of bacteria in MH broth at A600 nm 0.1-0.2 (10^7 cfu/mL, density necessary to detect degradation products). […] ONPG was added to a 100 μg/ml final concentration and substrate cleavage was monitored by light absorption measurements at 420 nm. Polymixin B at 8 μM against 10^7 cfu/mL was used as positive control. Bacterial suspension in MH broth plus substrates was used as negative control (untreated cells).

human erythrocytes = assay: Lytic activity against human erythrocytes; type: cell-based; conditions: Table 2; for Human cells H50: maximal concentration 500 μM
Description: Human blood was collected from EFS (‘Etablissement Francais du Sang’) in Rennes (France). […] After centrifugation, the absorbance of the supernatant was measured at 414 nm. Three wells were positive controls, where the RBC were mixed with water 1% Triton X-100, in these wells the totality of RBC were hemolyzed and the release of hemoglobin was considered to be 100%. Three wells were negative controls, where the RBC were mixed with PBS buffer, in these wells hemolysis was considered to be null. The percentage of hemolysis in each test well was calculated by comparing with controls. For each peptide, bloods from three different donors were tested.

[1] = tested on: VISA strain S. aureus Mu 50; assay: microbe, parasite or virus in culture; conditions: Staphylococcus aureus, read-out: VISA MIC
[2] = tested on: MRSA strain S. aureus N315; assay: microbe, parasite or virus in culture; conditions: Staphylococcus aureus, read-out: MRSA MIC

Row | Compound | time to detection of the reporter, inner membrane (E. coli strain ML-35p; ONPG, polymixin B 8 μM, peptides 6 μM and 12 μM) [min] | time to detection of the reporter, outer membrane (E. coli strain ML-35p; nitrocefin, polymixin B at 8 μM) [s] | Human cells % hemolysis at 500 μM (human erythrocytes) [%] | Human cells H50 (human erythrocytes) | MIC [1] [µM] | MIC [2] [µM]
1 | polymixin B | 20 | 30 | – | – | – | –
2 | COc1cccc(OC)c1C(=O)N[C@@H]1C(=O)N2[C@@H]1SC(C)(C)[C@@H]2C(=O)O [Meticillin, reference compound] | – | – | 0.12 | nd (not detectable at the maximal concentration tested (500 μM)) | > 500 | –
3 | CN[C@H](CC(C)C)C(=O)N[C@H]1C(=O)N[C@@H](CC(N)=O)C(=O)N[C@H]2C(=O)N[C@H]3C(=O)N[C@H](C(=O)N[C@H](C(=O)O)c4cc(O)cc(O)c4-c4cc3ccc4O)[C@H](O)c3ccc(c(Cl)c3)Oc3cc2cc(c3O[C@@H]2O[C@H](CO)[C@@H](O)[C@H](O)[C@H]2O[C@H]2C[C@](C)(N)[C@H](O)[C@H](C)O2)Oc2ccc(cc2Cl)[C@H]1O [Vancomycin, reference compound] | – | – | 0.15 | nd (not detectable at the maximal concentration tested (500 μM)) | 1 (≈ 1.45 µg/mL) | 32 (≈ 46.4 µg/mL)
